Experimental data from patent publication US6979686B1, “Substituted pyrazoles as p38 kinase inhibitors” (Pharmacia Corporation, priority 2001, dated 2005).
Structures can show the parent of a compound that is named as a salt. Where two headings read alike, the source gives them in different places.

Columns and labels:
[1] = test system: TNF-α, U937 human histiocytic lymphoma cell line; test: LPS stimulation of TNF production by U937 cells; format: cell-based
Outline: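 U937 cells differentiated 24 h with 20 ng/ml PMA, rested 24-48 h, used at 2 million cells/ml. Compounds in 0.1% DMSO final; LPS (E. coli, 100 ng/ml final) stimulation for 4 h at 37° C. Released TNF-α measured by ELISA; IC50 (μM).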

[2] = test system: TNF-a, human peripheral blood mononuclear cells; test: LPS stimulation of human PBMs, TNF-a by ELISA; format: cell-based; conditions: Table 5, LPS-stimulated human PBM cells, TNF cell assay
Method: Method of Isolation of Human Peripheral Blood Mononuclear Cells:
Human whole blood was collected in Vacutainer tubes containing EDTA as an anticoagulant. A blood sample (7 ml) was carefully layered over 5 ml PMN Cell Isolation Medium (Robbins Scientific) in a 15 ml round bottom centrifuge tube. The sample was centrifuged at 450-500×g for 30-35 minutes in a swing out rotor at room temperature. After centrifugation, the top band of cells were removed and washed 3 times with PBS w/o calcium or magnesium. The cells were centrifuged at 400×g for 10 minutes at room temperature. The cells were resuspended in Macrophage Serum Free Medium (Gibco BRL) at a concentration of 2 million cells/ml.
LPS Stimulation of Human PBMs:
Compounds were dissolved in DMSO initially and diluted in TCM for a final concentration of 0.1% DMSO. LPS (Calbiochem, 20 ng/ml, final concentration) was then added at a volume of 0.010 ml. Cultures were incubated overnight at 37° C. Supernatants were then removed and tested by ELISA for TNF-a and IL1-b. Viability was analyzed using MTS. After 0.1 ml supernatant was collected, 0.020 ml MTS was added to remaining 0.1 ml cells.

human p38 kinase alpha = molecular target: T1, human p38 kinase alpha (Homo sapiens, UniProt Q16539); test: p38 kinase in vitro assay, phosphorylation of biotinylated PHAS-I with 32P-ATP; format: biochemical; conditions: for P38 alpha kinase % inhib @ conc. (uM): @ 1.0 uM
T1 construct: GST (N, cleaved yes); made in house; host or cells: E. coli DH10B
T1 sequence (Q16539 whole entry): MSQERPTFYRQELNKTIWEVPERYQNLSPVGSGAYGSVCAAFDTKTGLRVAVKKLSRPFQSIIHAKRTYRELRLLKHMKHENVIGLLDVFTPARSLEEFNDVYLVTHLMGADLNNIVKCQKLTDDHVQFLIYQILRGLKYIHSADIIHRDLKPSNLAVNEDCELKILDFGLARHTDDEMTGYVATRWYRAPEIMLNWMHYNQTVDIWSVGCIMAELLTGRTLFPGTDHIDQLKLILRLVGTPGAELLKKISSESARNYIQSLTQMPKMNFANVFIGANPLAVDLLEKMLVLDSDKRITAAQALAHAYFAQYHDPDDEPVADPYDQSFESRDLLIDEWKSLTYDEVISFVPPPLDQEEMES

[3] = test system: TNF-α, rats challenged with LPS; test: Rat assay, LPS-stimulated TNF release; format: in vivo; conditions: for inhibition in vivo at 3 mg/kg / Rat LPS Model % inhib @ dose @ predose time: 3 mpk oral gavage, −4 h before LPS challenge; for inhibition in vivo at 3 mg/kg: read-out: Rat LPS Model % inhib @ dose @ predose time
Method: The efficacy of the novel compounds in blocking the production of TNF also was evaluated using a model based on rats challenged with LPS. Male Harlen Lewis rats [Sprague Dawley Co.] were used in this model. Each rat weighed approximately 300 g and was fasted overnight prior to testing. Compound administration was typically by oral gavage (although intraperitoneal, subcutaneous and intravenous administration were also used in a few instances) 1 to 24 hours prior to the LPS challenge. Rats were administered 30 μg/kg LPS [salmonella typhosa, Sigma Co.] intravenously via the tail vein. Blood was collected via heart puncture 1 hour after the LPS challenge. Serum samples were stored at −20° C. until quantitative analysis of TNF-α by Enzyme Linked-Immuno-Sorbent Assay (“ELISA”) [Biosource]. Additional details of the assay are set forth in Perretti, M., et al., Br. J. Pharmacol. (1993), 110, 868-874, which is incorporated by reference in this application.
In vivo assessment of the ability of the compounds to inhibit LPS-stimulated TNF release in the rat is shown in the column identified as: • “Rat LPS Model, % TNF inhib dose @ predose time” wherein in the dose is milligram per kilogram (mpk) administered by oral gavage and the predose time indicates the number of hours before LPS challenge when the compound is administered.
In vivo assessment of the ability of the compounds to inhibit LPS-stimulated TNF release in the rat is shown in the column identified as: • “Rat LPS Model % Inhibition@dose@predose time” wherein the dose is milligram per kilogram (mpk) administered by oral gavage and the predose time indicates the number of hours before LPS challenge when the compound is administered.
(§1) In vitro p38 alpha kinase inhibitory data are shown in the column identified as “p38 alpha IC50 (μM)”. In vitro human whole blood assay data for measuring the ability of the compounds to inhibit TNF production in human whole blood stimulated with LPS are shown in the column identified as: “HWB IC50 (μM)”. In vivo assessment of the ability of the compounds to inhibit LPS-stimulated TNF-release in the rat is shown in the column identified as: “ratLPS/%Inh@dose(mg/kg)”, wherein the dose is in milligram per kilogram (mg/kg) administered by oral gavage, 4 hours before LPS challenge.

[4] = test system: TNF alpha, BALB/c mice injected with LPS; test: Mouse model of LPS-induced TNF alpha production; format: in vivo; conditions: 30 mpk oral gavage, −6 h before LPS challenge
Method: Mouse Model of LPS-induced TNF Alpha Production:
TNF alpha was induced in 10-12 week old BALB/c female mice by tail vein injection with 100 ng lipopolysaccharide (from S. Typhosa) in 0.2 ml saline. One hour later mice were bled from the retroorbital sinus and TNF concentrations in serum from clotted blood were quantified by ELISA.
Efficacy was determined at each time point as percent inhibition of serum TNF levels relative to LPS injected mice that received vehicle only.
In vivo assessment of the ability of the compounds to inhibit LPS-stimulated TNP release in the mouse is shown in the column identified as: • “Mouse LPS Model, % TNF inhib @ dose @ predose time” wherein in the dose is milligram per kilogram (mpk) administered by oral gavage and the predose time indicates the number of hours before LPS challenge when the compound is administered.

[5] = test system: human TNF, human whole blood stimulated with LPS; test: TNF inhibition: human whole blood assay; format: cell-based; conditions: for TNF Inhibition-Human Whole Blood Assay: Table 9, percentage, concentration not given
Method: TNF Inhibition: Human Whole Blood Assay
Human peripheral blood is obtained in heparinized tubes. A 190 μL aliquot of blood is placed in each well of a 96 well u-bottom plate. […] After one hour of incubation at 37° C., […] of lipopolysaccharide (Salmonella typhosa, Sigma) in phosphate buffered saline is added resulting in a final concentration of […]. After four to five hours of incubation at 37° C., the supernatants are harvested and assayed at 1:10 or 1:20 dilutions for human TNF using ELISA.
In vitro human whole blood assay data for measuring the ability of the compounds to inhibit TNF production in human whole blood stimulated with LPS are shown in the column identified as: • “Human Whole Blood IC50, μM or %Inhib@conc. (μM)”
as §1

[6] = Table 5, LPS-stimulated U937 cells, TNF-α, read-out: U937 Cell Assay IC50
[7] = activated human p38 kinase alpha, PHAS-I substrate, 50 μM unlabeled ATP, read-out: p38 kinase IC50
[8] = in vitro P38-alpha kinase inhibition, read-out: P38 alpha kinase IC50
[9] = in vitro P38-alpha kinase, read-out: P38 alpha kinase IC50

## CCc1[nH]nc(-c2ccccc2)c1-c1ccncc1 [Example A-43]
[1]; [6]
  IC50: 0.243 µM
[2]
  IC50: < 0.1 µM
Human p38 kinase alpha; [7]
  IC50: < 0.1 µM

## Cc1ccc(S(=O)(=O)NC(C)c2[nH]nc(-c3ccc(F)cc3)c2-c2ccncc2)cc1 (centres unmarked) [Example B-0576]
[3]; Rattus norvegicus, po
  inhibition in vivo at 3 mg/kg: 65%
Human p38 kinase alpha; [8]
  IC50: 0.068 µM

## O=C(c1ccc(F)cc1)N1CCC(c2[nH]nc(-c3ccc(F)cc3)c2-c2ccncc2)CC1 [Example B-1360]
[3]; Rattus norvegicus, po
  inhibition in vivo at 3 mg/kg: 54%

## COc1ccc(-n2nc(-c3ccc(F)cc3)c(-c3ccncc3)c2-c2cnc[nH]2)cc1 [Example A-323, 4-[3-(4-fluorophenyl)-5-(1H-imidazol-4-yl)-1-(4-methoxyphenyl)-1H-pyrazol-4-yl]pyridine]
other
  melting point: 124 to 126 °C
[3]; Rattus norvegicus, po, read-out: Rat LPS Assay % Inhibition, Table 8, dose 30.0 mg/kg
  inhibition in vivo at 30 mg/kg: 40%

## CC(=O)N1CCC(c2[nH]nc(-c3ccc(F)cc3)c2-c2ccncc2)CC1 [Example B-1363]
[3]
  Rat LPS Model % inhib @ dose @ predose time: 53% @ 3 mpk @ −4 h
[4]
  Mouse LPS Model % TNF inhib @ dose @ predose time: 51.0% @ 30 pmk @
Human p38 kinase alpha; [9]
  IC50: 0.009 µM

## Cc1[nH]nc(-c2ccc(Cl)cc2)c1-c1ccncc1 [Example 7, 4-(3-(4-chlorophenyl)-5-methyl-1H-pyrazol-4-yl)pyridine]
[2]; PBMC
  IC50: 0.2 µM

## CC(NC(=O)C(C)(C)C)c1[nH]nc(-c2ccc(F)cc2)c1-c1ccncc1 (centres unmarked) [Example B-0601]
[3]; Rattus norvegicus, po
  inhibition in vivo at 3 mg/kg: 43%
Human p38 kinase alpha; [8]
  IC50: 0.089 µM

## Cc1[nH]nc(-c2ccsc2)c1-c1ccncc1 [Example A-49]
[2]
  IC50: 6.8 µM

## O=C(NCCCc1[nH]nc(-c2ccc(F)cc2)c1-c1ccncc1)C1CC1 [Example B-1166]
[3]
  Rat LPS Model % inhib @ dose @ predose time: 50% @ 3 mpk @ −4 h
[4]
  Mouse LPS Model % TNF inhib @ dose @ predose time: 50% @ 30 mpk @ −6 h
Human p38 kinase alpha
  P38 alpha kinase % inhib @ conc. (uM): 77.0% @

## Fc1ccc(-c2n[nH]c(N3CCC4(CC3)OCCO4)c2-c2ccncc2)cc1 [Example A-380, 8-[5-(4-fluorophenyl)-4-(4-pyridinyl)-1H-pyrazol-3-yl]-1,4-dioxa-8-azaspiro[4.5]decane]
[5]
  TNF Inhibition-Human Whole Blood Assay: 32%

## Clc1ccc(-c2n[nH]cc2-c2ccncn2)cc1 [Example A-310, 4-[3-(4-chlorophenyl)-1H-pyrazol-4-yl]pyrimidine]
other
  melting point: 218.17 °C

## Clc1ccc(-c2n[nH]c(SCCOC3CCCCO3)c2-c2ccncc2)cc1 (centres unmarked) [Example A-474]
[5]; Homo sapiens, Table 10, read-out: TNF Inhibition-Human Whole Blood Assay
  IC50: 1.47 µM

## CCc1[nH]nc(-c2cccc(C)c2)c1-c1ccncc1 [Example 45]
[2]; PBMC
  IC50: < 0.1 µM

## O=C(C1CC1)N1CCC(c2[nH]nc(-c3ccc(F)cc3)c2-c2ccncc2)CC1 [Example B-1364]
[1]; Homo sapiens, U-937, TNF production, human U937 cells stimulated with LPS, read-out: U937 Cell IC50
  IC50: 0.27 µM
[3]; Rattus norvegicus, po
  inhibition in vivo at 3 mg/kg: 17%
[4]; Mus musculus, read-out: Mouse LPS Model % TNF inhib @ dose @ predose time
  inhibition in vivo at 30 mg/kg: 53%
Human p38 kinase alpha; [9]
  IC50: 0.009 µM

## O=C(NCCCc1[nH]nc(-c2ccc(F)cc2)c1-c1ccncc1)c1ccc(F)cc1 [Example B-1161]
[3]
  Rat LPS Model % inhib @ dose @ predose time: 45% @ 3 mpk @ −4 h
[4]
  Mouse LPS Model % TNF inhib @ dose @ predose time: 40% @ 30 mpk @ −6 h
Human p38 kinase alpha
  P38 alpha kinase % inhib @ conc. (uM): 64.0% 2

## CC(NS(=O)(=O)c1ccc(Cl)s1)c1[nH]nc(-c2ccc(F)cc2)c1-c1ccncc1 (centres unmarked) [Example B-0650]
[3]; Rattus norvegicus, po
  inhibition in vivo at 3 mg/kg: 8%
Human p38 kinase alpha; [8]
  IC50: 0.006 µM

## Clc1ccc(-c2n[nH]c(SC3CCNCC3)c2-c2ccncc2)cc1 [A-459 (salt)]
[5]; Table 10, read-out: TNF Inhibition-Human Whole Blood Assay
  IC50: 0.28 µM

## O=C1CCN(c2[nH]nc(-c3ccc(F)cc3)c2-c2ccncc2)CC1 [Example A-378, 1-[5-(4-fluorophenyl)-4-(4-pyridinyl)-1H-pyrazol-3-yl]-4-piperidinone]
[5]
  TNF Inhibition-Human Whole Blood Assay: 49%

## OC1CCN(c2[nH]nc(-c3ccc(F)cc3)c2-c2ccncc2)CC1 [Example A-379, 1-[5-(4-fluorophenyl)-4-(4-pyridinyl)-1H-pyrazol-3-yl]-4-piperidinol]
[5]
  TNF Inhibition-Human Whole Blood Assay: 44%

## N#Cc1ccc(C(=O)C(=C2SCS2)c2ccncc2)cc1 [Example A-396]
other
  melting point: 193.3 to 193.4 °C

## Clc1ccc(-c2n[nH]c(SCCN3CCCC3)c2-c2ccncc2)cc1 [Example A-460]
other
  melting point: 189.9 to 190.1 °C

## O=C(C(=C1SCS1)c1ccncc1)c1ccc(OC(F)(F)F)cc1 [Example A-395]
other
  melting point: 182.6 to 183 °C

## CC(NS(=O)(=O)c1cccc(Cl)c1)c1[nH]nc(-c2ccc(F)cc2)c1-c1ccncc1 (centres unmarked) [Example B-0639]
[3]; Rattus norvegicus, po
  inhibition in vivo at 3 mg/kg: 50%
Human p38 kinase alpha; [8]
  IC50: 0.051 µM

## 5-[2-(1,1-DIMETHYL)AMINOETHYL]-4-(4-PYRIDYL)-3-(4-FLUOROPHENYL)PYRAZOLE [Example C-114]
[5]; TNF production, human whole blood stimulated with LPS, read-out: Human Whole Blood IC50, μM or % Inhib @ conc. (μM): IC50
  IC50: 1.73 µM

## Fc1ccc(-c2n[nH]cc2-c2ccnc(NCCN3CCCCC3)c2)cc1 [Example A-375, 4-[3-(4-fluorophenyl)-1H-pyrazol-4-yl]-N-[2-(1-piperidinyl)ethyl]-2-pyridinamine]
[5]
  TNF Inhibition-Human Whole Blood Assay: 28%

## COc1ccc(S(=O)(=O)NC(C)c2[nH]nc(-c3ccc(F)cc3)c2-c2ccncc2)cc1 (centres unmarked) [Example B-0574]
[3]; Rattus norvegicus, po
  inhibition in vivo at 3 mg/kg: 37%

## CCCc1[nH]nc(-c2cccc(C)c2)c1-c1ccncc1 [Example A-26]
[1]; [6]
  IC50: 0.029 µM
[2]
  IC50: < 0.1 µM
Human p38 kinase alpha; [7]
  IC50: 0.7 µM

## O=C(O)C(Cc1cnc[nH]1)Sc1[nH]nc(-c2ccc(Cl)cc2)c1-c1ccncc1 (centres unmarked) [Example A-471]
other
  melting point: 163 to 165 °C

## CCn1nc(C)c(-c2ccncc2)c1-c1ccc(Cl)cc1 [Example A-207, 4-[3-(4-chlorophenyl)-2-ethyl-5-methyl-1H-pyrazol-4-yl]pyridine]
other
  melting point: 153.46 °C
